Experimental data reported in patent US10155021B2, “Antimicrobial 4-oxoquinolizines” (Emergent Product Development Gaithersburg Inc., priority 2011, dated 2018).
Values after ≈ are worked out from the molar mass of the structure shown. Like-named read-outs stand apart in the source and are kept apart here. Marks after values point to notes of the source that are not given here.

Columns and labels:
A. baumannii A472 = experiment: MIC determination for Acinetobacter strains (Example 3); format: cell-based; settings: LEV R, CIP R, MRP I, IMP I, AMK R, TET R
A. baumannii A329 = experiment: Preliminary MBC without and with sub-inhibitory polymyxin B (Example 4); format: cell-based, Acinetobacter baumannii; settings: for MBC: Acinetobacter baumannii, A329, A. baumannii A329, without polymyxin B, read-out: MBC without PB
[1] = system: Acinetobacter sp. (H064200250); experiment: as above; format: cell-based; settings: preliminary MBC; for MBC +[…] PB: +[…] polymyxin B; for MBC: Acinetobacter, without polymyxin B, read-out: MBC without PB
How it was run: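 Read-out: the minimum concentration at which colonies were reduced by ca. 90% relative to positive control, usually seen as isolated colonies or a clear plate. Plates had been kept 18-20 hours at 37° C beforehand.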

A. baumannii A390 = experiment: as above; format: cell-based, Acinetobacter baumannii; settings: preliminary MBC; for MBC: Acinetobacter baumannii, A390, A. baumannii A390, without polymyxin B, read-out: MBC without PB
A. baumannii A489 [2] = experiment: MIC without and with sub-inhibitory polymyxin B (Example 4); format: cell-based, Acinetobacter baumannii; settings: for MIC +[…] PB / MIC without PB/MIC + PB: A. baumannii A489; for MIC +[…] PB: +[…] polymyxin B; for MIC without PB/MIC + PB: ratio; for MIC: Acinetobacter baumannii, A489, A. baumannii A489, without polymyxin B, read-out: MIC without PB
[3] = system: Acinetobacter sp. (H064200250); experiment: as above; format: cell-based; settings: for MIC +[…] PB: +[…] polymyxin B; for MIC without PB/MIC + PB: ratio; for MIC: Acinetobacter, without polymyxin B, read-out: MIC without PB
A. baumannii A473 = experiment: as above; format: cell-based, Acinetobacter baumannii; settings: for MIC: Acinetobacter baumannii, A473, A. baumannii A473, without polymyxin B, read-out: MIC without PB
A. baumannii J2 = experiment: Preliminary MBC without and with sub-inhibitory polymyxin B (Example 4); format: cell-based, Acinetobacter baumannii; settings: preliminary MBC; for MBC +[…] PB: A. baumannii J2, +[…] polymyxin B; for MBC: Acinetobacter baumannii, J2, A. baumannii J2, without polymyxin B, read-out: MBC without PB
A. baumannii A 401 = experiment: MIC determination for Acinetobacter strains (Example 3); format: cell-based; settings: A401, LEV R, CIP R, AMK R, TET R
A. baumannii ATCC 19606 = experiment: MIC without and with sub-inhibitory polymyxin B (Example 4); format: cell-based, Acinetobacter baumannii; settings: for MIC +0.06 μg/ml PB / MIC without PB/MIC + PB: A. baumannii ATCC 19606; for MIC +0.06 μg/ml PB: +0.06 μg/ml polymyxin B; for MIC without PB/MIC + PB: ratio, PB 0.06 μg/ml; for MIC: Acinetobacter baumannii, ATCC19606, A. baumannii ATCC 19606, without polymyxin B
A. baumannii A489 [4] = experiment: Preliminary MBC without and with sub-inhibitory polymyxin B (Example 4); format: cell-based, Acinetobacter baumannii; settings: for MBC +[…] PB: A. baumannii A489, +[…] polymyxin B; for MBC: Acinetobacter baumannii, A489, A. baumannii A489, without polymyxin B, read-out: MBC without PB
[5] = Acinetobacter spp. H064200250 (OXA51), 2nd experiment
[6] = Acinetobacter spp. H064200250, 1st experiment
[7] = Acinetobacter spp. H064200250 (OXA51), 2nd experiment, visual reading

MIC (A. baumannii A472): 16 µg/mL (≈ 53.4 µM) | MIC +[…] PB (A. baumannii A489 [2]; 1st experiment): 2 µg/mL (≈ 6.68 µM) | MIC +[…] PB (A. baumannii A489 [2]; 2nd experiment, visual reading): 0.25 µg/mL (≈ 0.835 µM) | MIC without PB/MIC + PB (A. baumannii A489 [2]; 1st experiment): 64 | MIC without PB/MIC + PB (A. baumannii A489 [2]; 2nd experiment): 256 | MIC (A. baumannii A489 [2]; 1st experiment): 128 µg/mL (≈ 428 µM) | MIC (A. baumannii A489 [2]; 2nd experiment, visual reading): 64 µg/mL (≈ 214 µM) | MIC +[…] PB [3, 7]: 0.5 µg/mL (≈ 1.67 µM) | MIC without PB/MIC + PB [3, 5]: 16 | MIC +[…] PB [3, 6]: 0.5 µg/mL (≈ 1.67 µM) | MIC without PB/MIC + PB [3, 6]: 32 | MIC [3, 7]: 8 µg/mL (≈ 26.7 µM) | MIC [3, 6]: 16 µg/mL (≈ 53.4 µM) | MIC +0.06 μg/ml PB (A. baumannii A473; A. baumannii A473, +0.06 μg/ml polymyxin B, 2nd experiment, visual reading): 4 µg/mL | MIC without PB/MIC + PB (A. baumannii A473; A. baumannii A473, ratio, PB 0.06 μg/ml, 2nd experiment): 8 | MIC (A. baumannii A473; 1st experiment): 32 µg/mL (≈ 107 µM) | MIC (A. baumannii A473; 2nd experiment, visual reading): 32 µg/mL (≈ 107 µM) | MIC (A. baumannii A 401): 32 µg/mL (≈ 107 µM) | MIC +0.06 μg/ml PB (A. baumannii ATCC 19606; 1st experiment): 1 µg/mL | MIC +0.06 μg/ml PB (A. baumannii ATCC 19606; 2nd experiment, visual reading): 1 µg/mL | MIC without PB/MIC + PB (A. baumannii ATCC 19606; 1st experiment): 2 | MIC without PB/MIC + PB (A. baumannii ATCC 19606; 2nd experiment): 1 | MIC (A. baumannii ATCC 19606; 1st experiment, read-out: MIC without PB): 2 µg/mL (≈ 6.68 µM) | MIC (A. baumannii ATCC 19606; 2nd experiment, second reading marked *, mark not explained, read-out: MIC without PB, value in parentheses marked *): 4 µg/mL (≈ 13.4 µM) | MIC (A. baumannii ATCC 19606; 2nd experiment, visual reading, read-out: MIC without PB): 1 µg/mL (≈ 3.34 µM)
Compound: C[C@@H](O)[C@H]1C(=O)N2C(C(=O)O)=C(SCCN=CN)C[C@H]12 [Imipenem, reference compound]
MBC +0.06 μg/ml PB (A. baumannii A329; A. baumannii A329, +0.06 μg/ml polymyxin B, 2nd experiment): 128 µg/mL | MBC (A. baumannii A329; 1st experiment): 128 µg/mL (≈ 428 µM) | MBC (A. baumannii A329; 2nd experiment): > 128 µg/mL | MBC +[…] PB [1, 5]: 0.5 µg/mL (≈ 1.67 µM) | MBC +[…] PB [1, 6]: 2 (0.5)* μg/ml | MBC [1, 5]: 8 µg/mL (≈ 26.7 µM) | MBC [1, 6]: 16 µg/mL (≈ 53.4 µM) | MBC +0.06 μg/ml PB (A. baumannii A390; A. baumannii A390, +0.06 μg/ml polymyxin B, 2nd experiment): 4 µg/mL | MBC (A. baumannii A390; 2nd experiment): 16 µg/mL (≈ 53.4 µM) | MBC (A. baumannii A390; 1st experiment): 16 µg/mL (≈ 53.4 µM) | MBC +[…] PB (A. baumannii J2; 2nd experiment): ≤0.125 µg/mL | MBC +[…] PB (A. baumannii J2; 1st experiment): ≤0.125 µg/mL | MBC (A. baumannii J2; 2nd experiment): 8 µg/mL (≈ 26.7 µM) | MBC (A. baumannii J2; 1st experiment): 4 µg/mL (≈ 13.4 µM) | MBC +[…] PB (A. baumannii A489 [4]; 1st experiment): 2 µg/mL (≈ 6.68 µM) | MBC +[…] PB (A. baumannii A489 [4]; 2nd experiment): 0.25 µg/mL (≈ 0.835 µM) | MBC (A. baumannii A489 [4]; 1st experiment): 64 µg/mL (≈ 214 µM) | MBC (A. baumannii A489 [4]; 2nd experiment): 64 µg/mL (≈ 214 µM)
